Measured values: paper PMC5490407, “Chiral Derivatives of Xanthones: Investigation of the Effect of Enantioselectivity on Inhibition of Cyclooxygenases (COX-1 and COX-2) and Binding Interaction with Human Serum Albumin” (Pharmaceuticals, 2017)

Experiments:
COX-2 = molecular target: T1, COX-2 (Homo sapiens, UniProt P35354); test: COX Inhibitor Screening Assay Kit, COX-2 inhibition; format: biochemical; details: for percentage of enzyme inhibition, COX-2: CDXs 20 µmol/L, mean ± standard deviation, triplicate in two independent days
T1 construct: purchased Cayman Chemical
T1 sequence (P35354 18-604): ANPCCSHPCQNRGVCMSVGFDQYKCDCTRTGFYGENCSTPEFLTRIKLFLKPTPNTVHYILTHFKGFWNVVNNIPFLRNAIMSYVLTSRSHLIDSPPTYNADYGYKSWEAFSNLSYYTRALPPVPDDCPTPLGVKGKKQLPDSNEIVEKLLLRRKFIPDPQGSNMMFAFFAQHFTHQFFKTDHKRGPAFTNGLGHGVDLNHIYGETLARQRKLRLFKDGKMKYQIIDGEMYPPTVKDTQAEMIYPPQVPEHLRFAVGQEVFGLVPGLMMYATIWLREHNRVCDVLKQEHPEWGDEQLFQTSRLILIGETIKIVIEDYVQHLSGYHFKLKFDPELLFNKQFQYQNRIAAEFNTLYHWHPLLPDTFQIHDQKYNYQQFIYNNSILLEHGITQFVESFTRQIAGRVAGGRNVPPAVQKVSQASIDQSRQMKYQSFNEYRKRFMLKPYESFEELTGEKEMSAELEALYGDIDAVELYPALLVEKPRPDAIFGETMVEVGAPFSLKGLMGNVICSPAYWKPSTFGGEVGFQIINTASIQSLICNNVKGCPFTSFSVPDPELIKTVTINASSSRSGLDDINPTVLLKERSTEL
Procedure: (§1) The effect of CDXs previously obtained in our group as inhibitors of membrane located enzymes that might be involved in inflammatory processes, namely COX-1 and COX-2, was evaluated. Three enantiomeric pairs of CDXs were chosen to study the inhibitory effect of both enantiomers of each pair face to biological targets in order to evaluate potency and enantioselectivity. The effect on COXs activity was studied by spectrofluorimetry using a commercial kit measuring the peroxidation activity of COXs. The kit includes isoenzyme-specific inhibitors for distinguishing COX-1 from COX-2 activities.
(§2) The evaluation of the inhibition of COX-1 and COX-2 by CDXs was conducted using the commercially available COX (ovine/human) Inhibitor Screening Assay Kit (Cayman Chemical, Michigan, MI, USA). Briefly, the assay implies an enzymatic immunoassay based on the competition between prostaglandins (PGs) and a PG-acetylcholinesterase (AChE) conjugate (PG tracer), which is then evaluated by the addition of Ellman’s reagent. All the solutions required for the experiment were prepared according to the manufacturer’s instructions. Each compound was analysed in two independent days, in triplicate. CDX working solutions were prepared in DMSO to a final concentration of 20 µM. […] Absorbance measurements at 412 nm were performed in a Synergy HT microplate reader (Bio-Tek Instruments, Winooski, VT, USA) operated with Gen5 software (Bio-Tek Instruments).

COX-1 = molecular target: T2, COX-1 (Ovis aries, UniProt P05979); test: COX Inhibitor Screening Assay Kit, COX-1 inhibition; format: biochemical, ovine; details: CDXs 20 µmol/L; mean ± standard deviation, triplicate in two independent days
T2 construct: purchased Cayman Chemical
T2 sequence (P05979 25-600): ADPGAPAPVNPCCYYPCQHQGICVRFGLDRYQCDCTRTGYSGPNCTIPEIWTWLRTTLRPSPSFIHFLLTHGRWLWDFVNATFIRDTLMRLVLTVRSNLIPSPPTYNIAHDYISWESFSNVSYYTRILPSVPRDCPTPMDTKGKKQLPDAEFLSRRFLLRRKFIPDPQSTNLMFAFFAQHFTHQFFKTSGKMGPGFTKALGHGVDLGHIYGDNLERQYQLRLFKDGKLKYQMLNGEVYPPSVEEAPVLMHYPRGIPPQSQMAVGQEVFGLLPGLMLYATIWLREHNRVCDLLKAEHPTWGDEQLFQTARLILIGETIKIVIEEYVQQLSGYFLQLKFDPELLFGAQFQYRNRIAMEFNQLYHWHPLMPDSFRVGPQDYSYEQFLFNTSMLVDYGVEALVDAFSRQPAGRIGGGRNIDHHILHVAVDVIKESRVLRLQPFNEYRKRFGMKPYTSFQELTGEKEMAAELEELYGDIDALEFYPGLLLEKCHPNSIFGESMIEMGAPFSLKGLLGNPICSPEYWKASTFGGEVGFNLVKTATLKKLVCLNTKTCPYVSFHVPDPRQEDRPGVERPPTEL
Procedure: as §1, §2

HSA = molecular target: T3, HSA (Homo sapiens, UniProt P02768); test: Interaction with human serum albumin by fluorescence quenching; format: binding; details: for Ymax, maximum percentage of HSA fluorescence quenching / Kd: HSA 2 µM, pH 7.4, 25 °C; for Ymax, maximum percentage of HSA fluorescence quenching / Kd / ∆G Binding: mean ± standard deviation of triplicate runs; for Kd: read-out: Kd, dissociation constant of CDX-HSA; for ∆G Binding: HSA binding
T3 construct: purchased Sigma-Aldrich
T3 sequence (P02768 25-609): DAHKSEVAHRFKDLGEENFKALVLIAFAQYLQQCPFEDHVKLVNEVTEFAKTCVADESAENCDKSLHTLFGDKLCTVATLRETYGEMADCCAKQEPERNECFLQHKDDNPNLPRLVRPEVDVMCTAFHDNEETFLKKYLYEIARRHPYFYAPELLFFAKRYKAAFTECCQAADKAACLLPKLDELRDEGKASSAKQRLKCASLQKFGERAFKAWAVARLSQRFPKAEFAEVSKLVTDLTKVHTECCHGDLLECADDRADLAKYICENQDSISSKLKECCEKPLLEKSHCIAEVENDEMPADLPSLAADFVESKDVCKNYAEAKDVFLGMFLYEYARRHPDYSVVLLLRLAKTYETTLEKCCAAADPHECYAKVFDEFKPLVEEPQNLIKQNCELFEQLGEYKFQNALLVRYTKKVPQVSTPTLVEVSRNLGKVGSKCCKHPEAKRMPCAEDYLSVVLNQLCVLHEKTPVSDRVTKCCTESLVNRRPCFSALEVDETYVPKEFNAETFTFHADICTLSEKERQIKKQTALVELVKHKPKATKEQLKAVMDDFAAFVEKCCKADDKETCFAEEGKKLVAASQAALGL
Procedure: Evaluation of the binding of CDXs to HSA was based on the quenching of HSA intrinsic fluorescence. Phosphate buffer consisting of 7.5 mM Na2HPO4, 1.5 mM KH2PO4 and 140 mM NaCl (pH 7.4) was used in the preparation of CDX solutions. Solutions of HSA fraction V (Sigma-Aldrich, St. Louis, MO, USA) were prepared in water. Briefly, 500 µL of HSA (fixed final concentration 2 µM), increasing volumes of drug solution (n = 13, 0–200 µM) and phosphate buffer solution (pH 7.4) were mixed to a final volume of 1500 µL. The corresponding blank solutions were identically prepared and analysed in the absence of the drug. Fluorescence emission spectra were recorded in the range of 300–450 nm upon excitation at 295 nm. Excitation spectra were also recorded between 220 and 310 nm with emission set at 330 nm. For individual measurements, excitation and emission wavelength were set at 295 nm and 330 nm, respectively. For each measurement, fluorescence emission was automatically acquired during 180 s (5 nm bandwidth). For all compounds, UV-vis absorption spectra (200–500 nm) were recorded. These measurements were used to correct the fluorescence intensity values due to inner filter effects at the excitation wavelength. All experiments were performed at room temperature (25 ± 1 °C). Fluorescence and absorbance measurement were performed in a LS-50B spectrometer (Perkin Elmer, Waltham, MA, USA) and a V-660 spectrophotometer (Jasco, Easton, MD, USA) respectively.
HSA-CDX binding parameters were calculated using the Origin 8.5.1 software (8.5.1, Northampton, MA, USA). The fitting of the experimental values was made according to the Langmuir binding equation (Equation (1)) to calculate HSA binding parameters: (1) [HSA−CDX]=[HSA]/1+ Kd/[CDX] where [HSA], [CDX] and [HSA-CDX] are given in μM and Kd corresponds to the dissociation constant of HSA-CDX complexes.
In terms of fluorescence quenching mediated by the compound, the previous Langmuir isotherm can be rewritten as follows (Equation (2)):(2) %quenching=ymax^n/1+ Kd/[CDX] where ymax corresponds to the highest percentage of quenching induced by a given compound and n accounts for the number of biding sites of the enzyme to the CDX. Finally, free Gibbs energy (ΔG) was also determined for all the interactions.

Row | difference in HSA binding affinity between (S)- and (R)-enantiomers (HSA; (S)-enantiomer higher affinity than (R)-enantiomer) | SMILES | percentage of enzyme inhibition, COX-2 (COX-2) | percentage of enzyme inhibition, COX-1 (COX-1) | Ymax, maximum percentage of HSA fluorescence quenching (HSA) | Kd (HSA) | enzyme-type selectivity COX-2 vs COX-1 (COX-2; paired t-test, p < 0.05) | ∆G Binding (HSA)
1 | – | COc1ccc2c(=O)c3cc(C(=O)N[C@@H](CO)c4ccccc4)ccc3oc2c1 [(R)-(+)-CDX1] | 84.7 ± 5.7% | 79.6 ± 5.0% | 109.6 ± 1.6% | 61.8 ± 6.5 µM | – | –
2 | – | COc1ccc2c(=O)c3cc(C(=O)N[C@@H](CO)C(C)C)ccc3oc2c1 [(R)-(+)-CDX2] | 73.2 ± 0.4% | 66.8 ± 1.6% | 108.2 ± 0.2% | 29.2 ± 0.9 µM | more active at inhibiting COX-2 than COX-1 | -2.0 ± 0.1 kcal/mol
3 | – | COc1ccc2c(=O)c3cc(C(=O)N[C@H](C)CO)ccc3oc2c1 [(R)-(−)-CDX3] | 75.1 ± 7.2% | 75.2 ± 9.0% | 113.2 ± 1.4% | 26.4 ± 1.2 µM | – | –
4 | – | COc1ccc2c(=O)c3cc(C(=O)N[C@@H](C)CO)ccc3oc2c1 [(S)-(+)-CDX3] | 93.4 ± 11.4% | 91.7 ± 10.7% | 116.2 ± 0.6% | 31.4 ± 2 µM | – | -2.0 ± 0.2 kcal/mol
5 | – | COc1ccc2c(=O)c3cc(C(=O)N[C@H](CO)c4ccccc4)ccc3oc2c1 [(S)-(−)-CDX1] | 80.1 ± 12.8% | 87.6 ± 2.1% | 105.3 ± 0.4% | 23.6 ± 0.8 µM | – | –
6 | – | COc1ccc2c(=O)c3cc(C(=O)N[C@H](CO)C(C)C)ccc3oc2c1 [(S)-(−)-CDX2] | 85.7 ± 4.5% | 82.9 ± 5.2% | 107.4 ± 5.4% | 24.7 ± 1.1 µM | – | –
7 | ca. 2.6 fold | COc1ccc2c(=O)c3cc(C(=O)NC(CO)c4ccccc4)ccc3oc2c1 (stereo not shown) [CDX1] | – | – | – | – | – | –
